Measurements from paper PMC11678869, “Functional Role of Odorant-Binding Proteins in Response to Sex Pheromone Component Z8-14:Ac in Grapholita molesta (Busck)” (Insects, 2024).

Legend:
OFM male antennae = test: Electroantennogram (EAG) analysis; design: species or system Grapholita molesta; conditions: for EAG response of OFM males: 20, 200 and 2000 μg doses
Protocol: (§1) Electroantennogram (EAG) equipment (Syntech, Hilversum, The Netherlands) was used to record the antennal responses of the OFM and PFM adults to Z8-12:Ac, E8-12:Ac, Z8-12:OH, Z8-14:Ac, and Z10-14:Ac. These sex pheromone compounds were diluted with liquid paraffin to prepare a stimulus solution of 100 μg/μL, which was subsequently diluted to 10 and 1 μg/μL. Antenna from 3-day-old OFM and 2- to 4-day-old PFM virgin males were excised at its base, with the distal part of the terminal segment being removed. Then, the treated antenna was attached to electrode holders with SpectraR360 conducting gel. A stimulus controller (model CS-55, Syntegon Technology, Waiblingen, Germany) continuously supplied a humidified air stream at a rate of 500 mL/min. Then, 20 μL of each stimulus solution was adsorbed onto a twice-folded filter paper strip (0.5 cm × 4 cm) placed on the wide section of a l mL pipette tip, which served as an odorant cartridge. Vapor stimuli were delivered by an air compressor into the constant air stream described above, flowing in a copper delivery tube (i.d. 8 mm) with the outlet positioned approximately 1 cm from the antenna. The EAG amplitude tests of the OFM and PFM males’ responses to sex pheromones started with solvent control stimuli (20 μL of liquid paraffin), followed by stimulation with 20, 200, and 2000 μg doses (20 μL of 1.0, 10.0, and 100.0 μg/μL of liquid paraffin solutions, respectively) of stimulus in sequence. The solvent control was performed at the end of the run. To control for variations among antennae, each sample was tested on 10 antennae of different males. The EAG signals and data were analyzed using EAG 2000 software (Syntech, Hilversum, The Netherlands). The corrected EAG amplitude value = absolute EAG amplitude value − (EAGck1 + EAGck2)/2, where EAGck1 and EAGck2 represent the absolute EAG amplitude values of the solvent control before and after measuring each stimulus, respectively. The relative EAG response of the OFM and PFM males to the same doses of sex pheromones were subjected to an analysis of independent sample t-test (p = 0.05) using SPSS version 23.0 (IBM).

PFM male antennae = test: Electroantennogram (EAG) analysis; design: species or system Grapholita funebrana; conditions: 20, 200 and 2000 μg doses
Protocol: as §1

PFM males = test: Field trapping with delta traps, pear orchard; format: in vivo, Grapholita funebrana
Protocol: (§2) To determine the inhibitory effects on OFM male adults and the impact on the trapping effects of PFM male adults, varying amounts of Z8-14:Ac (0, 5, 10, 25, 50, 75, 100, 125, 150 μg) or Z10-14:Ac (0, 25, 50, 100, 150, 250, 350, 450, and 550 μg) were added to rubber septa loaded with a constant dosage of the main pheromone (500 μg of Z8-12:Ac and 20 μg of E8-12:Ac) of the PFM. Trapping experiments of Z8-14:Ac were carried out in peach and pear orchards in Yan’an and Xinjiang (China), respectively. Trapping tests of Z10-14:Ac were performed in pear orchards in Xinjiang (China). Each orchard had nine plots, with three plots in one field. Each plot consisted of a linear arrangement of traps loaded with a constant dosage of the main pheromones and different percentages of the secondary pheromone Z8-14:Ac or Z10-14:Ac of the PFM. Plots in the same field were placed 30 m apart, and fields were ≥1 km apart. The traps were hung 1.4 m from the ground on a suspension bracket between two rows of peach or pear trees from 10 June to 25 July 2021 in Xinjiang and from 15 June to 30 July 2021 in Yan’an. The positions of the traps within the plot were randomly arranged. Every 5 days, counts were taken, and the traps were rotated to the adjacent position to avoid any potential position effects. The septa loaded with sex pheromone components were replaced with new ones after every 15 days of suspension. The data were analyzed using a one-way ANOVA, and the differences in the average trapping of OFM and PFM males using sex attractants containing different amounts of Z8-14:Ac or Z10-14:Ac were further analyzed using Tukey’s HSD test, both of which were performed using SPSS 23.0.

OFM males = test: Field trapping with delta traps, pear orchard; format: in vivo, Grapholita molesta; conditions: pear orchard; for Inhibition Rate of OFM Males: vs 100:4:0
Protocol: as §2

[1] = Z8-12:Ac/E8-12:Ac/Z10-14:Ac 500/20/25 μg (100:4:5)
[2] = Z8-12:Ac/E8-12:Ac/Z10-14:Ac 500/20/50 μg (100:4:10)
[3] = Z8-12:Ac/E8-12:Ac/Z10-14:Ac 500/20/100 μg (100:4:20)
[4] = Z8-12:Ac/E8-12:Ac/Z10-14:Ac 500/20/150 μg (100:4:30)
[5] = Z8-12:Ac/E8-12:Ac/Z10-14:Ac 500/20/250 μg (100:4:50)
[6] = Z8-12:Ac/E8-12:Ac/Z10-14:Ac 500/20/350 μg (100:4:70)
[7] = Z8-12:Ac/E8-12:Ac/Z10-14:Ac 500/20/450 μg (100:4:90)
[8] = Z8-12:Ac/E8-12:Ac/Z10-14:Ac 500/20/550 μg (100:4:110)
[9] = more than 10% of Z10-14:Ac added to Z8-12:Ac and E8-12:Ac (100:4)

## CCC/C=C/CCCCCCCOC(C)=O [E8-12:Ac, (E)-8-dodecenyl acetate]
OFM male antennae
  EAG response of OFM males: higher sensitivity
PFM male antennae
  EAG response of PFM males: higher sensitivity

## CCC/C=C\CCCCCCCOC(C)=O [Z8-12:Ac, (Z)-8-dodecenyl acetate]
OFM male antennae
  EAG response of OFM males: higher sensitivity
PFM male antennae
  EAG response of PFM males: higher sensitivity

## CCC/C=C\CCCCCCCCCOC(C)=O [Z10-14:Ac, (Z)-10-tetradecenyl acetate]
OFM male antennae; 20 μg
  EAG values of OFM males compared with PFM males: absence of significant difference
OFM male antennae
  EAG response of OFM males: moderate EAG response
OFM male antennae; 200 and 2000 μg
  EAG values of OFM males compared with PFM males: significantly greater than that of PFM males
PFM males; [1]
  Total PFM Males/Trap: 121.32 ± 12.10 ab Males/Trap
PFM males; [2]
  Total PFM Males/Trap: 101.39 ± 7.72 b Males/Trap
PFM males; [3]
  Total PFM Males/Trap: 102.73 ± 10.21 b Males/Trap
PFM males; [4]
  Total PFM Males/Trap: 66.08 ± 8.27 c Males/Trap
PFM males; [5]
  Total PFM Males/Trap: 62.46 ± 5.63 c Males/Trap
PFM males; [6]
  Total PFM Males/Trap: 51.35 ± 7.21cd Males/Trap
PFM males; [7]
  Total PFM Males/Trap: 41.24 ± 5.10 d Males/Trap
PFM males; [8]
  Total PFM Males/Trap: 42.33 ± 3.95 d Males/Trap
PFM males; [9]
  maximum reduction of the capture of PFM males: ≤ 71.07%
PFM male antennae
  EAG response of PFM males: moderate EAG response
OFM males; [1]
  Total OFM Males/Trap: 125.55 ± 14.47 ab Males/Trap
  Inhibition Rate of OFM Males: 35.04%
OFM males; [2]
  Total OFM Males/Trap: 97.92 ± 10.31 bc Males/Trap
  Inhibition Rate of OFM Males: 49.34%
OFM males; [3]
  Total OFM Males/Trap: 83.33 ± 9.82 cd Males/Trap
  Inhibition Rate of OFM Males: 56.89%
OFM males; [4]
  Total OFM Males/Trap: 33.56 ± 2.24 e Males/Trap
  Inhibition Rate of OFM Males: 82.64%
OFM males; [5]
  Total OFM Males/Trap: 31.28 ± 3.22 e Males/Trap
  Inhibition Rate of OFM Males: 83.82%
OFM males; [6]
  Total OFM Males/Trap: 37.49 ± 3.45 e Males/Trap
OFM males; [7]
  Total OFM Males/Trap: 23.64 ± 1.23 e Males/Trap
  Inhibition Rate of OFM Males: 87.77%
OFM males; [8]
  Total OFM Males/Trap: 29.69 ± 2.18 e Males/Trap
  Inhibition Rate of OFM Males: 84.64%
OFM males; [9]
  maximum reduction of the capture of OFM males: up to 87.77%
